Experimental data taken from PMC12254338 (Scientific Reports, 2025).
No end group written: not given here.

Molecular target: T1, Vps4p^∆N (lacks the MIT domain and linker; residues 101–437) (Saccharomyces cerevisiae, UniProt P52917)
T1 sequence (P52917 101-437): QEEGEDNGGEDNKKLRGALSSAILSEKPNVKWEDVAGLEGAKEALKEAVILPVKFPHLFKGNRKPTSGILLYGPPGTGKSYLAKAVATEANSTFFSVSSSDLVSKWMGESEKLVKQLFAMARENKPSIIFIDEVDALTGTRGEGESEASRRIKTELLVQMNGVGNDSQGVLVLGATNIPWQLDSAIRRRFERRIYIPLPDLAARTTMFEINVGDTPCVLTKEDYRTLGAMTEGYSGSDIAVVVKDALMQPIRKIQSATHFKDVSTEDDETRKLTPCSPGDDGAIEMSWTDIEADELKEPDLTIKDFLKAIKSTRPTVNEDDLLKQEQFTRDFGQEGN
T1 sequence (Q06263 280-330 partner limits assumed): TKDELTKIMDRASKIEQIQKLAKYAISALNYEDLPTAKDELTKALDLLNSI
Assay: Fluorescence polarization peptide binding assay to Vps4p^∆N
Set-up: species or system S. cerevisiae
Conditions: ratio of affinities

Substance: EKEKEKEK-NH2 [(EK)4]
- Fold tighter binding than (KE)4: 6 fold
